Assay results as given in the NIST ThermoML archive (doi:10.1021/je400055v).

Test: xn = mol fraction of the nth substance listed
Settings: Liquid, Vibrating tube method

CCCCCCCCCCC [undecane] + CCCCCCC
Settings	mass density [kg/m3]
352.96 K, 20000 kPa, x2 = 0.05	712.1
352.96 K, 20000 kPa, x2 = 0.5063	690.9
352.96 K, 21000 kPa, x2 = 0.05	712.9
352.96 K, 21001 kPa, x2 = 0.5063	691.8
352.96 K, 22001 kPa, x2 = 0.05	713.8
352.96 K, 22050 kPa, x2 = 0.5063	692.7
352.96 K, 23000 kPa, x2 = 0.05	714.6
352.96 K, 23000 kPa, x2 = 0.5063	693.6
352.96 K, 24000 kPa, x2 = 0.05	715.4
352.96 K, 24000 kPa, x2 = 0.5063	694.5
352.96 K, 25000 kPa, x2 = 0.05	716.2
352.96 K, 25000 kPa, x2 = 0.5063	695.3
352.97 K, 1000 kPa, x2 = 0.7482	654
352.97 K, 2000 kPa, x2 = 0.7482	655.3
352.97 K, 3000 kPa, x2 = 0.7482	656.6
352.97 K, 4000 kPa, x2 = 0.7482	657.8
352.97 K, 5000 kPa, x2 = 0.7482	659.1
352.97 K, 6000 kPa, x2 = 0.7482	660.3
352.97 K, 7000 kPa, x2 = 0.7482	661.5
352.97 K, 8000 kPa, x2 = 0.7482	662.7
352.97 K, 9000 kPa, x2 = 0.7482	663.9
352.97 K, 10000 kPa, x2 = 0.7482	665
352.97 K, 11000 kPa, x2 = 0.7482	666.1
352.97 K, 12000 kPa, x2 = 0.7482	667.2
352.97 K, 13000 kPa, x2 = 0.7482	668.3
352.97 K, 14000 kPa, x2 = 0.7482	669.4
352.97 K, 15000 kPa, x2 = 0.7482	670.5
352.97 K, 16000 kPa, x2 = 0.7482	671.5
352.97 K, 17000 kPa, x2 = 0.7482	672.5
352.97 K, 18000 kPa, x2 = 0.7482	673.5
352.97 K, 19000 kPa, x2 = 0.7482	674.5
352.97 K, 20000 kPa, x2 = 0.7482	675.5
352.97 K, 21000 kPa, x2 = 0.7482	676.5
352.97 K, 22000 kPa, x2 = 0.7482	677.4
352.97 K, 23000 kPa, x2 = 0.7482	678.3
352.97 K, 24000 kPa, x2 = 0.7482	679.2
352.97 K, 25000 kPa, x2 = 0.7482	680.2
352.99 K, 1015 kPa, x2 = 0.2346	685.9
352.99 K, 2016 kPa, x2 = 0.2346	687
352.99 K, 3016 kPa, x2 = 0.2346	688.1
352.99 K, 4017 kPa, x2 = 0.2346	689.2
352.99 K, 5018 kPa, x2 = 0.2346	690.2
352.99 K, 6019 kPa, x2 = 0.2346	691.3
352.99 K, 7020 kPa, x2 = 0.2346	692.3
352.99 K, 8020 kPa, x2 = 0.2346	693.3
352.99 K, 9021 kPa, x2 = 0.2346	694.4
352.99 K, 10022 kPa, x2 = 0.2346	695.3
352.99 K, 11022 kPa, x2 = 0.2346	696.3
352.99 K, 12023 kPa, x2 = 0.2346	697.3
352.99 K, 13024 kPa, x2 = 0.2346	698.2
352.99 K, 14025 kPa, x2 = 0.2346	699.2
352.99 K, 15026 kPa, x2 = 0.2346	700.1
352.99 K, 16027 kPa, x2 = 0.2346	701
352.99 K, 17028 kPa, x2 = 0.2346	701.9
352.99 K, 18030 kPa, x2 = 0.2346	702.8
352.99 K, 19030 kPa, x2 = 0.2346	703.7
352.99 K, 20031 kPa, x2 = 0.2346	704.5
352.99 K, 21066 kPa, x2 = 0.2346	705.4
352.99 K, 22068 kPa, x2 = 0.2346	706.3
352.99 K, 23071 kPa, x2 = 0.2346	707.1
352.99 K, 24073 kPa, x2 = 0.2346	707.9
352.99 K, 25076 kPa, x2 = 0.2346	708.7
362.87 K, 1001 kPa, x2 = 0.9511	628.1
362.87 K, 2000 kPa, x2 = 0.9511	629.7
362.87 K, 3000 kPa, x2 = 0.9511	631.1
362.87 K, 4000 kPa, x2 = 0.9511	632.6
362.87 K, 5000 kPa, x2 = 0.9511	634
362.87 K, 6000 kPa, x2 = 0.9511	635.4
362.87 K, 7000 kPa, x2 = 0.9511	636.8
362.87 K, 8000 kPa, x2 = 0.9511	638.2
362.87 K, 9000 kPa, x2 = 0.9511	639.5
362.87 K, 10000 kPa, x2 = 0.9511	640.8
362.87 K, 11000 kPa, x2 = 0.9511	642.1
362.87 K, 12000 kPa, x2 = 0.9511	643.4
362.87 K, 13000 kPa, x2 = 0.9511	644.6
362.87 K, 14001 kPa, x2 = 0.9511	645.8
362.87 K, 15001 kPa, x2 = 0.9511	647
362.87 K, 16000 kPa, x2 = 0.9511	648.2
362.87 K, 17001 kPa, x2 = 0.9511	649.3
362.87 K, 18001 kPa, x2 = 0.9511	650.5
362.87 K, 19000 kPa, x2 = 0.9511	651.6
362.87 K, 20000 kPa, x2 = 0.9511	652.7
362.87 K, 21001 kPa, x2 = 0.9511	653.8
362.87 K, 22000 kPa, x2 = 0.9511	654.9
362.87 K, 23001 kPa, x2 = 0.9511	655.9
362.87 K, 24000 kPa, x2 = 0.9511	656.9
362.87 K, 25000 kPa, x2 = 0.9511	658
362.91 K, 1000 kPa, x2 = 0.7482	645.5
362.91 K, 1023 kPa, x2 = 0.2346	678.2
362.91 K, 2000 kPa, x2 = 0.7482	646.9
362.91 K, 2024 kPa, x2 = 0.2346	679.4
362.91 K, 3000 kPa, x2 = 0.7482	648.3
362.91 K, 3026 kPa, x2 = 0.2346	680.6
362.91 K, 4000 kPa, x2 = 0.7482	649.6
362.91 K, 4027 kPa, x2 = 0.2346	681.7
362.91 K, 5000 kPa, x2 = 0.7482	650.9
362.91 K, 5028 kPa, x2 = 0.2346	682.8
362.91 K, 6000 kPa, x2 = 0.7482	652.2
362.91 K, 6029 kPa, x2 = 0.2346	683.9
362.91 K, 7000 kPa, x2 = 0.7482	653.5
362.91 K, 7031 kPa, x2 = 0.2346	685
362.91 K, 8000 kPa, x2 = 0.7482	654.7
362.91 K, 8032 kPa, x2 = 0.2346	686.1
362.91 K, 9000 kPa, x2 = 0.7482	656
362.91 K, 9033 kPa, x2 = 0.2346	687.1
362.91 K, 10000 kPa, x2 = 0.7482	657.2
362.91 K, 10035 kPa, x2 = 0.2346	688.2
362.91 K, 11000 kPa, x2 = 0.7482	658.4
362.91 K, 11036 kPa, x2 = 0.2346	689.2
362.91 K, 12000 kPa, x2 = 0.7482	659.5
362.91 K, 12037 kPa, x2 = 0.2346	690.2
362.91 K, 13000 kPa, x2 = 0.7482	660.7
362.91 K, 13038 kPa, x2 = 0.2346	691.2
362.91 K, 14000 kPa, x2 = 0.7482	661.8
362.91 K, 14040 kPa, x2 = 0.2346	692.2
362.91 K, 15000 kPa, x2 = 0.7482	662.9
362.91 K, 15041 kPa, x2 = 0.2346	693.2
362.91 K, 16000 kPa, x2 = 0.7482	664
362.91 K, 16043 kPa, x2 = 0.2346	694.1
362.91 K, 17000 kPa, x2 = 0.7482	665.1
362.91 K, 17044 kPa, x2 = 0.2346	695.1
362.91 K, 18000 kPa, x2 = 0.7482	666.2
362.91 K, 18046 kPa, x2 = 0.2346	696
362.91 K, 19000 kPa, x2 = 0.7482	667.2
362.91 K, 19047 kPa, x2 = 0.2346	696.9
362.91 K, 20000 kPa, x2 = 0.7482	668.3
362.91 K, 20049 kPa, x2 = 0.2346	697.8
362.91 K, 21000 kPa, x2 = 0.7482	669.3
362.91 K, 21083 kPa, x2 = 0.2346	698.8
362.91 K, 22000 kPa, x2 = 0.7482	670.3
362.91 K, 22086 kPa, x2 = 0.2346	699.6
362.91 K, 23000 kPa, x2 = 0.7482	671.3
362.91 K, 23089 kPa, x2 = 0.2346	700.5
362.91 K, 24000 kPa, x2 = 0.7482	672.2
362.91 K, 24092 kPa, x2 = 0.2346	701.4
362.91 K, 25000 kPa, x2 = 0.7482	673.2
362.91 K, 25095 kPa, x2 = 0.2346	702.2
362.92 K, 1001 kPa, x2 = 0.05	686.5
362.92 K, 2001 kPa, x2 = 0.05	687.6
362.92 K, 3000 kPa, x2 = 0.05	688.7
362.92 K, 4000 kPa, x2 = 0.05	689.8
362.92 K, 5000 kPa, x2 = 0.05	690.9
362.92 K, 6000 kPa, x2 = 0.05	692
362.92 K, 7000 kPa, x2 = 0.05	693
362.92 K, 8001 kPa, x2 = 0.05	694.1
362.92 K, 9000 kPa, x2 = 0.05	695.1
362.92 K, 10000 kPa, x2 = 0.05	696.1
362.92 K, 11000 kPa, x2 = 0.05	697.1
362.92 K, 12000 kPa, x2 = 0.05	698.1
362.92 K, 13000 kPa, x2 = 0.05	699.1
362.92 K, 14000 kPa, x2 = 0.05	700
362.92 K, 15000 kPa, x2 = 0.05	701
362.92 K, 16000 kPa, x2 = 0.05	701.9
362.92 K, 17000 kPa, x2 = 0.05	702.8
362.92 K, 18000 kPa, x2 = 0.05	703.7
362.92 K, 19000 kPa, x2 = 0.05	704.6
362.92 K, 20000 kPa, x2 = 0.05	705.5
362.92 K, 21000 kPa, x2 = 0.05	706.4
362.92 K, 22001 kPa, x2 = 0.05	707.3
362.92 K, 23000 kPa, x2 = 0.05	708.1
362.92 K, 24000 kPa, x2 = 0.05	708.9
362.92 K, 25000 kPa, x2 = 0.05	709.8
362.94 K, 2001 kPa, x2 = 0.5063	664.4
362.94 K, 3000 kPa, x2 = 0.5063	665.6
362.94 K, 4000 kPa, x2 = 0.5063	666.8
362.94 K, 5000 kPa, x2 = 0.5063	668
362.94 K, 6000 kPa, x2 = 0.5063	669.2
362.94 K, 7000 kPa, x2 = 0.5063	670.4
362.94 K, 8001 kPa, x2 = 0.5063	671.5
362.94 K, 9000 kPa, x2 = 0.5063	672.6
362.94 K, 10000 kPa, x2 = 0.5063	673.8
362.94 K, 11000 kPa, x2 = 0.5063	674.8
362.94 K, 12000 kPa, x2 = 0.5063	675.9
362.94 K, 13000 kPa, x2 = 0.5063	677
362.94 K, 14000 kPa, x2 = 0.5063	678
362.94 K, 15000 kPa, x2 = 0.5063	679.1
362.94 K, 16000 kPa, x2 = 0.5063	680.1
362.94 K, 17001 kPa, x2 = 0.5063	681.1
362.94 K, 18000 kPa, x2 = 0.5063	682.1
362.94 K, 19000 kPa, x2 = 0.5063	683.1
362.94 K, 20000 kPa, x2 = 0.5063	684
362.94 K, 21001 kPa, x2 = 0.5063	685
362.94 K, 22050 kPa, x2 = 0.5063	685.9
362.94 K, 23000 kPa, x2 = 0.5063	686.9
362.94 K, 24000 kPa, x2 = 0.5063	687.8
362.94 K, 25000 kPa, x2 = 0.5063	688.7
